Our source for the migration inhibition rate values is patent publication US12565522B2, “Micropeptide HMMW and application thereof” (NANJING ANJI BIOTECHNOLOGY CO., LTD., priority 2019, dated 2026).

No end group written: not given here.

What all share (test): transwell migration test
Format in all cases: cell-based, human
Common to all, as to details: 24 h

In assay [1] the test system is A431 cells of skin cancer.
Assay [2] has as its system A549 cells of lung cancer.
The test system of assay [3] is MGC803 cells of stomach cancer.
The test system of assay [4] is SCC4 cells of head and neck cancer.
For assay [5], the system named is SW579 cells of thyroid cancer.
Assay [6] deals with TE13 cells of esophageal squamous cell carcinoma.
For assay [7], the system named is UOK262 cells of kidney cancer.

Take “MGRAGVPGFSPRRSSVEAKMQSTSCSVRKSSTVTAWPAVVLLLSWGQRRGG-OH [HMMW-IX]”: the migration inhibition rate was determined as 33.19% in assay [1] (dose 1 μM); 55.17% in assay [1] (dose 4 μM); 73.22% in assay [1] (dose 16 μM); 36.00% in assay [2] (dose 1 μM); 52.95% in assay [2] (dose 4 μM); 71.46% in assay [2] (dose 16 μM). Further, the migration inhibition rate in assay [3] (dose 1 μM) was 25.61%; in assay [3] (dose 4 μM), 51.45%; in assay [3] (dose 16 μM) it was 74.80%; in assay [4] (dose 1 μM), 18.81%; in assay [4] (dose 4 μM) it was 43.97%; in assay [4] (dose 16 μM) it was 74.00%. The migration inhibition rate in assay [5] (dose 1 μM) came out at 17.81%; in assay [5] (dose 4 μM), 50.03%; in assay [5] (dose 16 μM), 71.98%; in assay [6] (dose 1 μM), 21.76%; in assay [6] (dose 4 μM), 40.29%; in assay [6] (dose 16 μM), 65.32%. The migration inhibition rate in assay [7] (dose 1 μM) is 17.39%; in assay [7] (dose 4 μM), 43.38%; in assay [7] (dose 16 μM), 70.47%.

For “MGSTGVPGFSPRRSSVEAKMQSTSCSVRKSSTVTAWPAVVLLLSWGQRRGG-OH [HMMW-VII]”, the migration inhibition rate amounted to 32.10% in assay [1] (dose 1 μM); 52.22% in assay [1] (dose 4 μM); 70.11% in assay [1] (dose 16 μM); 35.01% in assay [2] (dose 1 μM); 53.91% in assay [2] (dose 4 μM); 71.36% in assay [2] (dose 16 μM). Further, the migration inhibition rate is given as 26.60% in assay [3] (dose 1 μM); 51.31% in assay [3] (dose 4 μM); 70.62% in assay [3] (dose 16 μM); 17.42% in assay [4] (dose 1 μM); 44.61% in assay [4] (dose 4 μM); 72.34% in assay [4] (dose 16 μM). The migration inhibition rate came to 20.80% in assay [5] (dose 1 μM); 53.13% in assay [5] (dose 4 μM); 70.92% in assay [5] (dose 16 μM); 23.64% in assay [6] (dose 1 μM); 41.21% in assay [6] (dose 4 μM); 63.30% in assay [6] (dose 16 μM). Besides, the migration inhibition rate in assay [7] (dose 1 μM) was determined as 19.24%; in assay [7] (dose 4 μM), 40.21%; in assay [7] (dose 16 μM) it was 72.40%.

With “MGSTYNPGFSPRRSSVEAKMQSTSCSVRKSSTVTAWPAVVLLLSWGQRRGG-OH [HMMW-V]”, the migration inhibition rate was determined as 30.14% in assay [1] (dose 1 μM); 54.12% in assay [1] (dose 4 μM); 70.12% in assay [1] (dose 16 μM); 35.01% in assay [2] (dose 1 μM); 53.91% in assay [2] (dose 4 μM); 71.36% in assay [2] (dose 16 μM). For the same substance, the migration inhibition rate amounted to 27.64% in assay [3] (dose 1 μM); 54.41% in assay [3] (dose 4 μM); 75.82% in assay [3] (dose 16 μM); 18.36% in assay [4] (dose 1 μM); 44.67% in assay [4] (dose 4 μM); 71.04% in assay [4] (dose 16 μM). The migration inhibition rate was 17.45% in assay [5] (dose 1 μM); 51.13% in assay [5] (dose 4 μM); 71.93% in assay [5] (dose 16 μM); 23.74% in assay [6] (dose 1 μM); 42.23% in assay [6] (dose 4 μM); 64.31% in assay [6] (dose 16 μM). Further, the results for the migration inhibition rate in assay [7] (dose 1 μM), in assay [7] (dose 4 μM) and in assay [7] (dose 16 μM) were 18.29%, 42.28% and 72.43%, respectively.

In the case of “MERAGVPGFSPRRSSVEAKMQSTSCSVRKSSTVTAWPAVVLLLHTSKDDEE-OH [HMMW-II]”, the migration inhibition rate in assay [1] (dose 1 μM) came out at 31.14%; in assay [1] (dose 4 μM) it was 53.12%; in assay [1] (dose 16 μM), 71.12%; in assay [2] (dose 1 μM) it was 34.01%; in assay [2] (dose 4 μM), 52.91%; in assay [2] (dose 16 μM), 72.36%. Besides, the migration inhibition rate in assay [3] (dose 1 μM) came to 25.64%; in assay [3] (dose 4 μM), 52.41%; in assay [3] (dose 16 μM), 73.82%; in assay [4] (dose 1 μM), 18.81%; in assay [4] (dose 4 μM), 43.67%; in assay [4] (dose 16 μM), 75.04%. For the same substance, the migration inhibition rate was 18.80% in assay [5] (dose 1 μM); 50.13% in assay [5] (dose 4 μM); 71.92% in assay [5] (dose 16 μM); 22.74% in assay [6] (dose 1 μM); 40.23% in assay [6] (dose 4 μM); 65.31% in assay [6] (dose 16 μM). Moreover, the results for the migration inhibition rate in assay [7] (dose 1 μM), in assay [7] (dose 4 μM) and in assay [7] (dose 16 μM) were 16.29%, 41.28% and 70.43%, respectively.

With “MGSTYNKRHSPRRSSVEAKMQSTSCSVRKSSTVTAWPAVVLLLSWGQRRGG-OH [HMMW-III]”, the migration inhibition rate stood at 32.13% in assay [1] (dose 1 μM); 54.27% in assay [1] (dose 4 μM); 72.21% in assay [1] (dose 16 μM); 33.01% in assay [2] (dose 1 μM); 54.93% in assay [2] (dose 4 μM); 72.42% in assay [2] (dose 16 μM). Moreover, the migration inhibition rate is on record as 25.61% in assay [3] (dose 1 μM); 52.45% in assay [3] (dose 4 μM); 74.80% in assay [3] (dose 16 μM); 16.81% in assay [4] (dose 1 μM); 43.94% in assay [4] (dose 4 μM); 74.01% in assay [4] (dose 16 μM). Moreover, the migration inhibition rate is 18.83% in assay [5] (dose 1 μM); 50.04% in assay [5] (dose 4 μM); 71.92% in assay [5] (dose 16 μM); 22.76% in assay [6] (dose 1 μM); 41.29% in assay [6] (dose 4 μM); 65.32% in assay [6] (dose 16 μM). The migration inhibition rate in assay [7] (dose 1 μM) amounted to 16.39%; in assay [7] (dose 4 μM) it was 41.38%; in assay [7] (dose 16 μM) it was 70.47%.

Take “MERAGVPGFSPRRSSVEAKMQSTSCSVRKSSTVTAWPAVVLLLSWGQRDEE-OH [HMMW-VI]”: the migration inhibition rate in assay [1] (dose 1 μM) is 33.19%; in assay [1] (dose 4 μM) it was 55.17%; in assay [1] (dose 16 μM) it was 70.23%; in assay [2] (dose 1 μM) it was 32.00%; in assay [2] (dose 4 μM), 51.90%; in assay [2] (dose 16 μM), 70.46%. Further, the migration inhibition rate stood at 26.64% in assay [3] (dose 1 μM); 51.45% in assay [3] (dose 4 μM); 72.80% in assay [3] (dose 16 μM); 16.69% in assay [4] (dose 1 μM); 42.81% in assay [4] (dose 4 μM); 71.04% in assay [4] (dose 16 μM). Also, the migration inhibition rate in assay [5] (dose 1 μM) amounted to 19.81%; in assay [5] (dose 4 μM) it was 52.03%; in assay [5] (dose 16 μM), 70.91%; in assay [6] (dose 1 μM) it was 21.76%; in assay [6] (dose 4 μM), 40.21%; in assay [6] (dose 16 μM), 66.32%. Moreover, the migration inhibition rate in assay [7] (dose 1 μM) is given as 17.32%; in assay [7] (dose 4 μM), 40.38%; in assay [7] (dose 16 μM), 72.47%.

Turning to “MERAGVPGFSPRRSSVEAKMQSTSCSVRKSSTVTAWPAVVLLLSWGKDDEE-OH [HMMW-IV]”, the migration inhibition rate in assay [1] (dose 1 μM) came out at 32.19%; in assay [1] (dose 4 μM), 54.17%; in assay [1] (dose 16 μM), 71.24%; in assay [2] (dose 1 μM), 33.00%; in assay [2] (dose 4 μM), 52.91%; in assay [2] (dose 16 μM), 71.46%. Also, the migration inhibition rate is 25.60% in assay [3] (dose 1 μM); 52.45% in assay [3] (dose 4 μM); 74.80% in assay [3] (dose 16 μM); 16.84% in assay [4] (dose 1 μM); 43.91% in assay [4] (dose 4 μM); 75.04% in assay [4] (dose 16 μM). Moreover, the migration inhibition rate in assay [5] (dose 1 μM) is recorded as 18.81%; in assay [5] (dose 4 μM), 50.03%; in assay [5] (dose 16 μM), 71.91%; in assay [6] (dose 1 μM) it was 22.76%; in assay [6] (dose 4 μM) it was 41.29%; in assay [6] (dose 16 μM), 65.32%. For the same substance, the results for the migration inhibition rate in assay [7] (dose 1 μM), in assay [7] (dose 4 μM) and in assay [7] (dose 16 μM) were 16.32%, 41.38% and 70.47%, respectively.

“MERAGVPGFSPRRSSVEAKMQSTSCSVRKSSTVTAWPAVVLLLSWGQRRGE-OH [HMMW-VIII]”: the migration inhibition rate in assay [1] (dose 1 μM) was determined as 33.10%; in assay [1] (dose 4 μM), 53.37%; in assay [1] (dose 16 μM) it was 71.20%; in assay [2] (dose 1 μM), 32.06%; in assay [2] (dose 4 μM), 51.90%; in assay [2] (dose 16 μM), 73.40%. The migration inhibition rate in assay [3] (dose 1 μM) turned out to be 24.60%; in assay [3] (dose 4 μM), 53.43%; in assay [3] (dose 16 μM) it was 73.81%; in assay [4] (dose 1 μM), 17.80%; in assay [4] (dose 4 μM), 42.92%; in assay [4] (dose 16 μM) it was 72.35%. In addition, the migration inhibition rate in assay [5] (dose 1 μM) was 18.81%; in assay [5] (dose 4 μM), 52.05%; in assay [5] (dose 16 μM), 70.90%; in assay [6] (dose 1 μM), 23.73%; in assay [6] (dose 4 μM) it was 42.23%; in assay [6] (dose 16 μM) it was 63.31%. For the same substance, the results for the migration inhibition rate in assay [7] (dose 1 μM), in assay [7] (dose 4 μM) and in assay [7] (dose 16 μM) were 18.29%, 43.48% and 71.45%, respectively.
